A value given as a limit tells only on which side of the number the result lay.

The assay deals with His-Tagged hOGA (Homo sapiens (Human), UniProt O60502). Briefly: Human O-GlcNAcase enzyme inhibition assay. As to conditions: FL-GlcNAc substrate, 60 min at room temperature, pH 6.5; read-out: OGA IC50. The format is biochemical. As for the experimental part: Example B01: Human O-GlcNAcase Enzyme Inhibition Assay
His-Tagged hOGA, sequence (O60502 whole entry): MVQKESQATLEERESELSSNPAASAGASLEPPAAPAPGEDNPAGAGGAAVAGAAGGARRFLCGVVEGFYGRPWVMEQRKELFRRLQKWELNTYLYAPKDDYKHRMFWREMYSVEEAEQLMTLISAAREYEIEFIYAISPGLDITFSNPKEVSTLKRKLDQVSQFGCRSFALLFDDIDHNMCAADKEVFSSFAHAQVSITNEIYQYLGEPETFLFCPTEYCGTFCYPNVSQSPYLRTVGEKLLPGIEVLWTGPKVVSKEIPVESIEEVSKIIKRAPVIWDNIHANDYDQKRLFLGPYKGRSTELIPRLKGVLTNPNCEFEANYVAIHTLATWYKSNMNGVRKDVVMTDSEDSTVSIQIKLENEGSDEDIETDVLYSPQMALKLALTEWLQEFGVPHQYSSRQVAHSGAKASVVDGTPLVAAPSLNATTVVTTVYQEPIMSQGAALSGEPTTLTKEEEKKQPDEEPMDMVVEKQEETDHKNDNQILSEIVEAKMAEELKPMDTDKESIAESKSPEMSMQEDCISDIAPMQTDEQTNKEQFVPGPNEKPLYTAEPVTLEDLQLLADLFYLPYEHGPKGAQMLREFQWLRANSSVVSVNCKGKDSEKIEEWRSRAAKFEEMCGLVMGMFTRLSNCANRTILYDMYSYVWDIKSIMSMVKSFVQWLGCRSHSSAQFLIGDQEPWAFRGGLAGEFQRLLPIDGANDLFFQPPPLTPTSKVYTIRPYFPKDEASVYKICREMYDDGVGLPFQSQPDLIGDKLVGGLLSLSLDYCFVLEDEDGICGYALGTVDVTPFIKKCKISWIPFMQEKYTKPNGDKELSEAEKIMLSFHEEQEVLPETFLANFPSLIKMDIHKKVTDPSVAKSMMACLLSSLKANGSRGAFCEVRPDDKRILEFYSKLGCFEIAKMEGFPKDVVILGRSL
5 μl of the appropriate concentration of a solution of inhibitor in Mcllvaine's Buffer (pH 6.5) in 2% DMSO (for a dose response curve calculation) is added into each well of a 384-well plate (Greiner, 781900). Then, 20 nM of His-Tagged hOGA and 10 μM of FL-GlcNAc (Fluorescein mono-beta-D-(2-deoxy-2-N-acetyl) glucopyranoside; Marker Gene Technologies Inc, M1485) were added to the 384-well plate for a final volume of 20 μl. After incubation for 60 min at room temperature, the reaction was terminated by the addition of 10 μL of stop buffer (200 mM glycine, pH 10.75).
With `CC(c1ccc2c(c1)O[C@@H](C)C2)N1CCN(c2ncc3c(n2)CCNC3=O)CC1` (single isomer, unassigned) [Example 18, 2-(4-((S)-1-((S)-2-methyl-2,3-dihydrobenzofuran-6-yl)ethyl)piperazin-1-yl)-7,8-dihydropyrido[4,3-d]pyrimidin-5(6H)-one or 2-(4-((R)-1-((S)-2-methyl-2,3-dihydrobenzofuran-6-yl)ethyl)piperazin-1-yl)-7,8-dihydropyrido[4,3-d]pyrimidin-5(6H)-one], the IC50 was in the range of 0.05 to 0.2 µM. In the case of `CC1Cc2ccc(C(C)N3CCN(c4ccc(S(C)(=O)=O)cc4)CC3)cc2O1` (racemic) [Example 7, 1-(1-(2-methyl-2,3-dihydrobenzofuran-6-yl)ethyl)-4-(4-(methylsulfonyl)phenyl)piperazine], the concentration for half-maximal inhibition (IC50) lay in the range of 0.05 to 0.2 µM. As for `CC1Cc2ccc(C(C)N3CCN(c4ncc(S(C)(=N)=O)cn4)CC3)cc2O1` (racemic) [Example 3, Imino(methyl)(2-(4-(1-(2-methyl-2,3-dihydrobenzofuran-6-yl)ethyl)piperazin-1-yl)pyrimidin-5-yl)-λ^6-sulfanone], the IC50 is below 0.05 µM. As to `CC(c1ccc2c(c1)O[C@H](C)C2)N1CCN(c2ncc(S(C)(=N)=O)cn2)CC1` (stereo partly drawn) [Example 20, imino(methyl)(2-(4-(1-((R)-2-methyl-2,3-dihydrobenzofuran-6-yl)ethyl)piperazin-1-yl)pyrimidin-5-yl)-λ^6-sulfanone], the IC50 was below 0.05 µM. As for `CC(=O)Nc1nnc(N2CCN(C(C)c3ccc4c(c3)O[C@H](C)C4)CC2)s1` (single isomer, unassigned) [Example 11], the half-inhibitory concentration (IC50) was in the range of 0.2 to 1 µM. `CC(c1ccc2c(c1)O[C@H](C)C2)N1CCN(c2ncc3c(n2)CCNC3=O)CC1` (stereo partly drawn) [Example 10, 2-(4-(1-((R)-2-methyl-2,3-dihydrobenzofuran-6-yl)ethyl)piperazin-1-yl)-7,8-dihydropyrido[4,3-d]pyrimidin-5(6H)-one]: the concentration for half-maximal inhibition (IC50) was below 0.05 µM.

Take `CC(c1ccc2c(c1)O[C@@H](C)C2)N1CCN(c2ncc3c(n2)CCNC3=O)CC1` (stereo partly drawn) [Example 15, 2-(4-(1-((S)-2-methyl-2,3-dihydrobenzofuran-6-yl)ethyl)piperazin-1-yl)-7,8-dihydropyrido[4,3-d]pyrimidin-5(6H)-one]: the IC50 lay within 0.2 to 1 µM. Turning to `CC(=O)Nc1nnc(N2CCN(C(C)c3ccc4c(c3)O[C@H](C)C4)CC2)s1` (stereo partly drawn) [Example 9, N-(5-(4-(1-((R)-2-methyl-2,3-dihydrobenzofuran-6-yl)ethyl)piperazin-1-yl)-1,3,4-thiadiazol-2-yl)acetamide], the IC50 was below 0.05 µM. As for `CC(c1ccc2c(c1)OC(C)(C)C2)N1CCN(c2ncc(S(C)(=N)=O)cn2)CC1` (racemic) [Example 5, (2-(4-(1-(2,2-dimethyl-2,3-dihydrobenzofuran-6-yl)ethyl)piperazin-1-yl)pyrimidin-5-yl)(imino)(methyl)-λ^6-sulfanone], the figure is 1 to 10 µM.

In the case of `CC1Cc2ccc(C(C)N3CCN(c4ncc5c(n4)CCNC5=O)CC3)cc2O1` (racemic) [Example 2, 2-(4-(1-(2-methyl-2,3-dihydrobenzofuran-6-yl)ethyl)piperazin-1-yl)-7,8-dihydropyrido[4,3-d]pyrimidin-5(6H)-one], the IC50 is below 0.05 µM. Regarding `CC(=O)Nc1nnc(N2CCN(C(C)c3ccc4c(c3)O[C@H](C)C4)CC2)s1` (single isomer, unassigned) [Example 12], the IC50 was below 0.05 µM. Consider `CC(=O)Nc1nnc(N2CCN(C(C)c3ccc4c(c3)O[C@@H](C)C4)CC2)s1` (single isomer, unassigned) [Example 16], for which the IC50 lay in the range of 0.2 to 1 µM. The figure for `CC(=O)Nc1nnc(N2CCN(C(C)c3ccc4c(c3)OC(C)(C)C4)CC2)s1` (racemic) [Example 4, N-(5-(4-(1-(2,2-dimethyl-2,3-dihydrobenzofuran-6-yl)ethyl)piperazin-1-yl)-1,3,4-thiadiazol-2-yl)acetamide] is 1 to 10 µM; for `CC(=O)Nc1nnc(N2CCN(C(C)c3ccc4c(c3)O[C@@H](C)C4)CC2)s1` (single isomer, unassigned) [Example 17] it is 0.05 to 0.2 µM. As for `CC(=O)Nc1nnc(N2CCN(C(C)c3ccc4c(c3)OC(C)C4)CC2)s1` (racemic) [Example 1, N-(5-(4-(1-(2-methyl-2,3-dihydrobenzofuran-6-yl)ethyl)piperazin-1-yl)-1,3,4-thiadiazol-2-yl)acetamide], the half-maximal inhibitory concentration (IC50) is below 0.05 µM. For `CC(=O)Nc1nnc(N2CCN(C(C)c3cnc4c(c3)OC(C)C4)CC2)s1` (racemic) [Example 8, N-(5-(4-(1-(2-methyl-2,3-dihydrofuro[3,2-b]pyridin-6-yl)ethyl)piperazin-1-yl)-1,3,4-thiadiazol-2-yl)acetamide], the concentration for half-maximal inhibition (IC50) was 0.2 to 1 µM. For `CC(c1ccc2c(c1)O[C@H](C)C2)N1CCN(c2ncc(S(C)(=O)=O)cn2)CC1` (stereo partly drawn) [Example 19, 2-(4-(1-((R)-2-methyl-2,3-dihydrobenzofuran-6-yl)ethyl)piperazin-1-yl)-5-(methylsulfonyl)pyrimidine], the 50% inhibitory concentration (IC50) is below 0.05 µM. With `CC(=O)Nc1nnc(N2CCN(C(C)c3ccc4c(c3)O[C@@H](C)C4)CC2)s1` (stereo partly drawn) [Example 14, N-(5-(4-(1-((S)-2-methyl-2,3-dihydrobenzofuran-6-yl)ethyl)piperazin-1-yl)-1,3,4-thiadiazol-2-yl)acetamide], the half-maximal inhibitory concentration (IC50) was 0.2 to 1 µM. As to `CC(c1ccc2c(c1)O[C@H](C)C2)N1CCN(c2ncc3c(n2)CCNC3=O)CC1` (single isomer, unassigned) [Example 13, 2-(4-((S)-1-((R)-2-methyl-2,3-dihydrobenzofuran-6-yl)ethyl)piperazin-1-yl)-7,8-dihydropyrido[4,3-d]pyrimidin-5(6H)-one or 2-(4-((R)-1-((R)-2-methyl-2,3-dihydrobenzofuran-6-yl)ethyl)piperazin-1-yl)-7,8-dihydropyrido[4,3-d]pyrimidin-5(6H)-one], the IC50 is below 0.05 µM. Take `CC(c1ccc2c(c1)OC(C)(C)C2)N1CCN(c2ncc3c(n2)CCNC3=O)CC1` (racemic) [Example 6, 2-(4-(1-(2,2-dimethyl-2,3-dihydrobenzofuran-6-yl)ethyl)piperazin-1-yl)-7,8-dihydropyrido[4,3-d]pyrimidin-5(6H)-one]: the 50% inhibitory concentration (IC50) was 1 to 10 µM. Turning to `CC(c1ccc2c(c1)O[C@H](C)C2)N1CCN(c2n[nH]c(=O)s2)CC1` (stereo partly drawn) [Example 21, 5-(4-(1-((R)-2-methyl-2,3-dihydrobenzofuran-6-yl)ethyl)piperazin-1-yl)-1,3,4-thiadiazol-2(3H)-one], the IC50 fell in the range of 0.05 to 0.2 µM.

What is called IC50 is the concentration that inhibits the measured activity by half.

The values are drawn from patent US10995090B2, “Substituted dihydrobenzofuran glycosidase inhibitors” (Asceneuron SA, priority 2016, dated 2021).
